This assay deals with bovine cardiac myofibrils (full-length cardiac myosin ATPase in the native sarcomere) (Bos taurus (Bovine), UniProt Q9BE39). Put plainly: Skinned bovine cardiac myofibril ATPase assay (PK/LDH-coupled). Type of assay: biochemical. As to conditions: Ca2+ activating to 75% of maximal rate; for CDMF75 IC15: concentration giving 15% inhibition; for IC50: read-out: CDMF75 IC50. In outline:
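Triton-skinned bovine left-ventricle myofibrils (1 mg/mL) in PM 12 buffer (12 mM PIPES, 2 mM MgCl2, pH 6.8) with 50 μM ATP, 0.6 mM EGTA and CaCl2 set for 50% or 75% activation. Steady-state ATPase inhibition followed by PK/LDH-coupled NADH oxidation at 340 nm.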

Bounds are passed on as bounds.

The record followed here is patent publication US12065436B2, “Cardiac sarcomere inhibitors” (Cytokinetics, Inc., priority 2018, dated 2024).

Chain of bovine cardiac myofibrils (full-length cardiac myosin ATPase in the native sarcomere) (Q9BE39 whole entry): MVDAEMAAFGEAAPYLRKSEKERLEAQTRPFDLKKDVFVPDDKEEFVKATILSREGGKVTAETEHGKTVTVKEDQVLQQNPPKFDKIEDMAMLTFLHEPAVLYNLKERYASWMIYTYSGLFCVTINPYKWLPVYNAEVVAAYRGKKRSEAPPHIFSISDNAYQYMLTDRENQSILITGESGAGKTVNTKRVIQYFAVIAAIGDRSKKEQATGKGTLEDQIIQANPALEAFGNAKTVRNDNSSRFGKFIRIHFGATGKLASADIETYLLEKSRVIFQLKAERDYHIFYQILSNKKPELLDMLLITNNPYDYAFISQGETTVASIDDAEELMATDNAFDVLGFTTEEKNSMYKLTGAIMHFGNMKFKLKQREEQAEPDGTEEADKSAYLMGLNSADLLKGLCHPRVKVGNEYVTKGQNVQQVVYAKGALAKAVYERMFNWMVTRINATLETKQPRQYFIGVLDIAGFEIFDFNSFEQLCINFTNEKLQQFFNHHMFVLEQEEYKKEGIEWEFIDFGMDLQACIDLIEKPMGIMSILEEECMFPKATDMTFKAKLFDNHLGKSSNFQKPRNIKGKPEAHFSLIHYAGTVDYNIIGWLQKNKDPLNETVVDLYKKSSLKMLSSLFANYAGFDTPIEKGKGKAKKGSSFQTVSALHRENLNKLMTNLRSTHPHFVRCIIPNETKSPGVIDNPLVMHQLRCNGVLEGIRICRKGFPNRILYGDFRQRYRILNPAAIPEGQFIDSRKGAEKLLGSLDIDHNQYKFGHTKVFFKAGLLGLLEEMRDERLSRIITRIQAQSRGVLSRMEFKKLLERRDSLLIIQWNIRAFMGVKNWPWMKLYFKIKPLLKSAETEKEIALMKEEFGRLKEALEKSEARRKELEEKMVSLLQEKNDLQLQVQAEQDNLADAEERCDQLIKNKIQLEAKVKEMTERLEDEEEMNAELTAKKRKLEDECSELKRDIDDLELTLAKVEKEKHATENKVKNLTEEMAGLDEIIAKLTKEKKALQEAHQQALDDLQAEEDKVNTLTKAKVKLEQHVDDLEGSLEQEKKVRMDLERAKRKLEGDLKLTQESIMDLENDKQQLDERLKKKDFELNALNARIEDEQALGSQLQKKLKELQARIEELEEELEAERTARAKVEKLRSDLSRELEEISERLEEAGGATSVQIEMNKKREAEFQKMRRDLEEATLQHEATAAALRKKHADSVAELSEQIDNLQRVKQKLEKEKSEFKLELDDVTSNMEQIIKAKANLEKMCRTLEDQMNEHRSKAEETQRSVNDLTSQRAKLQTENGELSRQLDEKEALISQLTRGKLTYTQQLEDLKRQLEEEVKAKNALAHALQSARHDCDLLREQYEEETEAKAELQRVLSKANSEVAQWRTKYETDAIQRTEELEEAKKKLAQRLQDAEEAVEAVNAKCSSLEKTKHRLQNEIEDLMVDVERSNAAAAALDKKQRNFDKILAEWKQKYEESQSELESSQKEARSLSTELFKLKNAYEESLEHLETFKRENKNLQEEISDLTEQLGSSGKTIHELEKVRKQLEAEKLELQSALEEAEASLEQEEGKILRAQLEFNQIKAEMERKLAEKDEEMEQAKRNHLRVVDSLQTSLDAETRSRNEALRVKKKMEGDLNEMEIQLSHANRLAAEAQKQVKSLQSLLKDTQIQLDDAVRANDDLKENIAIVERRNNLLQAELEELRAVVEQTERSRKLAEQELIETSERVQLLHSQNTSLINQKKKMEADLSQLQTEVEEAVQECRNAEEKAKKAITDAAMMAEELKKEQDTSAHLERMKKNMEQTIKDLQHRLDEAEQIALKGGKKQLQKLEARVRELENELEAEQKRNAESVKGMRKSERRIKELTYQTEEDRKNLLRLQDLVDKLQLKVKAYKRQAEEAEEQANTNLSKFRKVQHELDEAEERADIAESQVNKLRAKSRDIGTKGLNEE
Chain of bovine cardiac myofibrils (full-length cardiac myosin ATPase in the native sarcomere) (P85100 whole entry partner): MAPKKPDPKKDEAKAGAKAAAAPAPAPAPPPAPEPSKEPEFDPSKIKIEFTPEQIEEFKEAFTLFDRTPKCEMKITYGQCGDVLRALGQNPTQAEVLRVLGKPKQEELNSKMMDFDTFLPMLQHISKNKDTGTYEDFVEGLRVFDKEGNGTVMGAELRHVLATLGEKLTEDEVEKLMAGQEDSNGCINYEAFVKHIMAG
Chain of bovine cardiac myofibrils (full-length cardiac myosin ATPase in the native sarcomere) (Q3SZE5 whole entry partner): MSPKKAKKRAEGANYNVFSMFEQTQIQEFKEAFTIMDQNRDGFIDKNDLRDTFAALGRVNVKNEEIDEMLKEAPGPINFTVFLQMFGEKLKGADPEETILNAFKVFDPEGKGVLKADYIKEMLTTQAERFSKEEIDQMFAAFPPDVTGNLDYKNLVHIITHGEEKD

Consider `Cc1nc(-c2ccc3c(c2)OCC3NC(=O)c2cnc(C)o2)no1` (stereo not shown) [Compound 166, 2-methyl-N-(6-(5-methyl-1,2,4-oxadiazol-3-yl)-2,3-dihydrobenzofuran-3-yl)oxazole-5-carboxamide], for which the “CDMF75 IC15” value stood at 2.0 µM and the IC50 stood at 7 µM.
Consider `Cn1nccc1C(=O)N[C@@H]1CCc2cc(C#CC3CC3)ccc21` [Compound 451, (R)-N-(5-(cyclopropylethynyl)-2,3-dihydro-1H-inden-1-yl)-1-methyl-1H-pyrazole-5-carboxamide], for which the “CDMF75 IC15” value was found to be 2.3 µM and the IC50 was 7.7 µM.
For `Cc1nc(-c2ccc3c(c2)OC[C@H]3NC(=O)c2oc(C)nc2C)no1` [Compound 161, (S)-2,4-dimethyl-N-(6-(5-methyl-1,2,4-oxadiazol-3-yl)-2,3-dihydrobenzofuran-3-yl)oxazole-5-carboxamide], in that order: 1.1 µM and 4.4 µM.
Consider `CC(=O)N[C@@H]1COc2cc(-c3noc(C4CC4)n3)ccc21` [Compound 457, (S)-N-(6-(5-cyclopropyl-1,2,4-oxadiazol-3-yl)-2,3-dihydrobenzofuran-3-yl)acetamide], for which the “CDMF75 IC15” value is 1.2 µM and the IC50 was 5.3 µM.
`CCc1nc(-c2ccc3c(c2)CC[C@H]3NC(=O)c2cc(Cl)no2)no1` [Compound 620, (R)-3-chloro-N-(5-(5-ethyl-1,2,4-oxadiazol-3-yl)-2,3-dihydro-1H-inden-1-yl)isoxazole-5-carboxamide]: the “CDMF75 IC15” value is 0.2 µM and the IC50 was 0.6 µM.
Take `Cc1n[nH]cc1C(=O)NC1CCc2cc(-c3noc(C(F)F)n3)ccc21` (stereo not shown) [Compound 69, N-(5-(5-(difluoromethyl)-1,2,4-oxadiazol-3-yl)-2,3-dihydro-1H-inden-1-yl)-3-methyl-1H-pyrazole-4-carboxamide]: the “CDMF75 IC15” value stood at 0.6 µM and the IC50 was determined as 2.3 µM.
Take `Cc1nc(C(=O)NC2CCc3cc(-c4noc(C(F)F)n4)ccc32)no1` (stereo not shown) [Compound 84, N-(5-(5-(difluoromethyl)-1,2,4-oxadiazol-3-yl)-2,3-dihydro-1H-inden-1-yl)-5-methyl-1,2,4-oxadiazole-3-carboxamide]: the “CDMF75 IC15” value came to 2.7 µM and the IC50 was determined as 10.8 µM.
`CCc1nc(-c2ccc3c(c2)CC[C@H]3NC(=O)c2cnc(C)n2C)no1` [Compound 568, (R)-N-(5-(5-ethyl-1,2,4-oxadiazol-3-yl)-2,3-dihydro-1H-inden-1-yl)-1,2-dimethyl-1H-imidazole-5-carboxamide]: the “CDMF75 IC15” value was determined as 0.4 µM and the IC50 was determined as 1.6 µM.
In the case of `CCc1nc(-c2ccc3c(c2)CC[C@H]3NC(=O)c2cc(CO)ccn2)no1` [Compound 652, (R)-N-(5-(5-ethyl-1,2,4-oxadiazol-3-yl)-2,3-dihydro-1H-inden-1-yl)-4-(hydroxymethyl)picolinamide], the “CDMF75 IC15” value is 0.5 µM and the IC50 is 1.5 µM.
As to `[2H]C([2H])([2H])c1noc(-c2ccc3c(c2)OC[C@H]3NC(=O)c2cnn(C)c2C)n1` [Compound 341, (S)-1,5-dimethyl-N-(6-(3-(methyl-d3)-1,2,4-oxadiazol-5-yl)-2,3-dihydrobenzofuran-3-yl)-1H-pyrazole-4-carboxamide], the “CDMF75 IC15” value was 1.9 µM and the IC50 was determined as 7.3 µM.
For `O=C(NC1CCc2cc(-c3noc(C(F)F)n3)ccc21)c1cnn2c1CCC2` (stereo not shown) [Compound 36, N-(5-(5-(difluoromethyl)-1,2,4-oxadiazol-3-yl)-2,3-dihydro-1H-inden-1-yl)-5,6-dihydro-4H-pyrrolo[1,2-b]pyrazole-3-carboxamide], the “CDMF75 IC15” value amounted to 0.9 µM and the IC50 was 4.7 µM.
With `O=C(NC1CCc2cc(-c3noc(C(F)F)n3)ccc21)c1ocnc1C1CC1` (stereo not shown) [Compound 21, 4-cyclopropyl-N-(5-(5-(difluoromethyl)-1,2,4-oxadiazol-3-yl)-2,3-dihydro-1H-inden-1-yl)oxazole-5-carboxamide], the “CDMF75 IC15” value came to 0.7 µM and the IC50 turned out to be 2.9 µM.
For `Cn1nccc1C(=O)NC1COc2cc(-c3noc(C4CC4)n3)ccc21` (stereo not shown) [Compound 221, N-(6-(5-cyclopropyl-1,2,4-oxadiazol-3-yl)-2,3-dihydrobenzofuran-3-yl)-1-methyl-1H-pyrazole-5-carboxamide], in that order: 0.6 µM and 2 µM.
Consider `Cc1cc(C(=O)NC2CCc3cc(-c4noc(C(F)F)n4)ccc32)cnn1` (stereo not shown) [Compound 37, N-(5-(5-(difluoromethyl)-1,2,4-oxadiazol-3-yl)-2,3-dihydro-1H-inden-1-yl)-6-methylpyridazine-4-carboxamide], for which the “CDMF75 IC15” value was found to be 2.1 µM and the IC50 was 9.7 µM.
`Cc1conc1C(=O)NC1CCc2cc(-c3noc(C(F)F)n3)ccc21` (stereo not shown) [Compound 104, N-(5-(5-(difluoromethyl)-1,2,4-oxadiazol-3-yl)-2,3-dihydro-1H-inden-1-yl)-4-methylisoxazole-3-carboxamide]: the “CDMF75 IC15” value was 1.7 µM and the IC50 turned out to be 6.3 µM.
For the molecule `C[C@@H](O)c1nc(-c2ccc3c(c2)CC[C@H]3NC(=O)c2cnn(C)c2)no1` [Compound 550, N-{(1R)-5-[5-((1R)-1-hydroxyethyl)(1,2,4-oxadiazol-3-yl)]indanyl}(1-methylpyrazol-4-yl)carboxamide], the “CDMF75 IC15” value is 13.1 µM and the concentration for half-maximal inhibition (IC50) turned out to be 39.2 µM.
Take `CO[C@@H](C)c1nc(-c2ccc3c(c2)CC[C@H]3NC(=O)c2oncc2C)no1` [Compound 126, N-((R)-5-(5-((S)-1-methoxyethyl)-1,2,4-oxadiazol-3-yl)-2,3-dihydro-1H-inden-1-yl)-4-methylisoxazole-5-carboxamide]: the “CDMF75 IC15” value turned out to be 1.6 µM and the IC50 came to 5.7 µM.
`Cn1nnc(C(=O)N[C@@H]2CCc3cc(-c4noc(C5CCC5)n4)ccc32)n1` [Compound 143, (R)—N-(5-(5-cyclobutyl-1,2,4-oxadiazol-3-yl)-2,3-dihydro-1H-inden-1-yl)-2-methyl-2H-tetrazole-5-carboxamide]: the “CDMF75 IC15” value was found to be 0.3 µM and the IC50 was found to be 1 µM.
With `CCOC(=O)C(C)c1nc(-c2ccc3c(c2)CCC3NC(=O)c2cnc(C)o2)no1` (stereo not shown) [Compound 493, ethyl 2-(3-(1-(2-methyloxazole-5-carboxamido)-2,3-dihydro-1H-inden-5-yl)-1,2,4-oxadiazol-5-yl)propanoate], the “CDMF75 IC15” value was found to be 5.6 µM and the IC50 came to 21.4 µM.
For `Cn1nccc1C(=O)N[C@@H]1CCc2cc(-c3nc(C(F)F)no3)ccc21` [Compound 217, (R)—N-(5-(3-(difluoromethyl)-1,2,4-oxadiazol-5-yl)-2,3-dihydro-1H-inden-1-yl)-1-methyl-1H-pyrazole-5-carboxamide], the “CDMF75 IC15” value was 0.6 µM and the IC50 stood at 1.9 µM.
For the molecule `[2H]C([2H])([2H])c1nc(-c2ccc3c(c2)OC[C@H]3NC(=O)c2cc(C)nn2C)no1` [Compound 266, (S)-1,3-dimethyl-N-(6-(5-(methyl-d3)-1,2,4-oxadiazol-3-yl)-2,3-dihydrobenzofuran-3-yl)-1H-pyrazole-5-carboxamide], the “CDMF75 IC15” value was 0.9 µM and the IC50 is 2.7 µM.
Take `COCc1nc(-c2ccc3c(c2)OC[C@H]3NC(=O)c2ccnn2C)no1` [Compound 224, (S)-N-(6-(5-(methoxymethyl)-1,2,4-oxadiazol-3-yl)-2,3-dihydrobenzofuran-3-yl)-1-methyl-1H-pyrazole-5-carboxamide]: the “CDMF75 IC15” value worked out at 0.6 µM and the IC50 amounted to 2.1 µM.
For `CC(=O)c1nc(-c2ccc3c(c2)CC[C@H]3NC(=O)c2cnn(C)c2)no1` [Compound 545, N-[(1R)-5-(5-acetyl(1,2,4-oxadiazol-3-yl))indanyl](1-methylpyrazol-4-yl)carboxamide] the same measures were 3.2 µM and 13.1 µM.
For `O=C(N[C@@H]1CCc2cc(-c3noc(C(F)F)n3)ccc21)C1CCOC1` (stereo partly drawn) [Compound 294, N-((R)-5-(5-(difluoromethyl)-1,2,4-oxadiazol-3-yl)-2,3-dihydro-1H-inden-1-yl)tetrahydrofuran-3-carboxamide], the “CDMF75 IC15” value stood at 15.6 µM and the concentration for half-maximal inhibition (IC50) is more than 39.2 µM.
As to `Cc1cc(C(=O)N[C@@H]2COc3cc(-c4noc(C)n4)ccc32)n(C)n1` [Compound 156, (S)-1,3-dimethyl-N-(6-(5-methyl-1,2,4-oxadiazol-3-yl)-2,3-dihydrobenzofuran-3-yl)-1H-pyrazole-5-carboxamide], the “CDMF75 IC15” value is 1.1 µM and the IC50 worked out at 4.7 µM.
For `Cc1ncc(C(=O)N[C@@H]2CCc3cc(-c4nc(C(F)F)no4)ccc32)o1` [Compound 215, (R)-N-(5-(3-(difluoromethyl)-1,2,4-oxadiazol-5-yl)-2,3-dihydro-1H-inden-1-yl)-2-methyloxazole-5-carboxamide] the same measures were 3.0 µM and 12.4 µM.
On to `Cc1nc(-c2ccc3c(c2)CCC3NC(=O)c2cnc(C)n2C)no1` (stereo not shown) [Compound 45, 1,2-dimethyl-N-(5-(5-methyl-1,2,4-oxadiazol-3-yl)-2,3-dihydro-1H-inden-1-yl)-1H-imidazole-5-carboxamide], for which the “CDMF75 IC15” value amounted to 2.1 µM and the IC50 came out at 7.6 µM.
Take `Cc1nc(-c2ccc3c(c2)CC[C@H]3NC(=O)c2c[nH]nc2C)no1` [Compound 400, (R)-3-methyl-N-(5-(5-methyl-1,2,4-oxadiazol-3-yl)-2,3-dihydro-1H-inden-1-yl)-1H-pyrazole-4-carboxamide]: the “CDMF75 IC15” value worked out at 0.8 µM and the IC50 is 2.8 µM.
For the molecule `CCc1nc(-c2ccc3c(c2)CCC[C@H]3NC(=O)c2cnn(C)c2)no1` [Compound 517, (R)—N-(6-(5-ethyl-1,2,4-oxadiazol-3-yl)-1,2,3,4-tetrahydronaphthalen-1-yl)-1-methyl-1H-pyrazole-4-carboxamide], the “CDMF75 IC15” value was 2.2 µM and the IC50 is 9.7 µM.

What is called IC50 is the concentration that gives 50% inhibition.
